Assay results as given in US10124003B2, “Therapeutic agent for FGFR inhibitor-resistant cancer” (TAIHO PHARMACEUTICAL CO., LTD., priority 2013, dated 2018).
Like-named read-outs stand apart in the source and are kept apart here.

Columns and labels:
[1] = test system: AZD4547 resistant OCUM-2MD3 cells; experiment: Cell growth inhibition, AZD4547 resistant OCUM-2MD3 cells (Test Example 7); format: cell-based, human
[2] = test system: OCUM-2MD3 cells; experiment: Cell growth inhibition, OCUM-2MD3 parent cells (Test Example 7); format: cell-based, human; settings: OCUM-2MD3 parent cell
[3] = test system: OCUM-2MD3 cells; settings: Homo sapiens, OCUM-2MD3, 72 h
Experimental: Human-derived gastric cancer OCUM-2MD3 cells, which overexpressed FGFR2, were subcultured daily in a Dulbecco's modified Eagle's medium (DMEM) containing 10% fetal bovine serum (FBS) at a cell density of not more than 80%. In order to initiate a test of the cell growth-inhibitory effect of the compounds, the OCUM-2MD3 cells were suspended in the above DMEM medium and seeded in a 96-well flat-bottom plate so that each well contained 3,000 cells. Then, the cells were cultured in an incubator containing 5% carbon dioxide gas at 37° C. for one day. […] The DMSO solution of the test compound was diluted with the medium used for cultivation, and the diluted solution was added to each well of the cell culture plate so that the final concentration of DMSO became 0.5%. Then, the cells were cultured in an incubator containing 5% carbon dioxide gas at 37° C. for 72 hours. The number of cells was measured at the time of the addition of the test compound and 72 hours later after culture by using a Cell Counting Kit-8 (produced by Dojindo Laboratories) according to a protocol recommended by Dojindo Laboratories. […] After completion of the reaction, the absorbance at a wavelength of 450 nm was measured by a microplate reader. […]
T: absorbance of well to which test compound was added
C: absorbance of well to which test compound was not added
C0: absorbance of well measured before addition of compound

[4] = molecular target: purified recombinant human FGFR2 protein (Homo sapiens (Human), UniProt P21802); experiment: Inhibitory effect on FGFR2 kinase activity (Test Example 1); format: biochemical; settings: ATP 75 μM
Chain of purified recombinant human FGFR2 protein (P21802 22-821): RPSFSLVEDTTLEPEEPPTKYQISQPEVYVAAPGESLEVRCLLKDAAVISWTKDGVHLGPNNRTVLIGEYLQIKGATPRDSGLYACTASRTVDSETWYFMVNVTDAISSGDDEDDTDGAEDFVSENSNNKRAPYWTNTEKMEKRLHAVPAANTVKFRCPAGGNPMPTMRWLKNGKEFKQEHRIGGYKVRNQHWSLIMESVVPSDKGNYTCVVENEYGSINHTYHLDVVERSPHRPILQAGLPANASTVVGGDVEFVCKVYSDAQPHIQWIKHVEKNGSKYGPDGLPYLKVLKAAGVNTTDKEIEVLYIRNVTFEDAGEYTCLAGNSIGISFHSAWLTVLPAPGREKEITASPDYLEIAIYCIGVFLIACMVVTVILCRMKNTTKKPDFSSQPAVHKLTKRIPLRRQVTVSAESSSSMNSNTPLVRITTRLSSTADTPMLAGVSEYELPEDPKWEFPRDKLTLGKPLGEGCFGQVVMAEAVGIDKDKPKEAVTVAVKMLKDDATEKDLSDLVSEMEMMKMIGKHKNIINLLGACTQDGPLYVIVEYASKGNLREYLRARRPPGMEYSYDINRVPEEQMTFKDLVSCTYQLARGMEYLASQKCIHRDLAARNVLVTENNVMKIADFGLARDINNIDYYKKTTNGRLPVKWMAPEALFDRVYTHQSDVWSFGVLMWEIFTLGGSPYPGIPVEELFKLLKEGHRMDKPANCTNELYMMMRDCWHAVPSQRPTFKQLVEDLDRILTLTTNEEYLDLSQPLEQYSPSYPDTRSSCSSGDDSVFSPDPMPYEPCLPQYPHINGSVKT
Experimental: EDTA (final concentration: 30 mM) diluted with a separation buffer (Caliper Life Sciences, Inc.) was added thereto to terminate the kinase reaction. […] The level of phosphorylation was determined from the quantitative ratio.

Question: For COc1cc(CCc2cc(NC(=O)c3ccc(N4CC(C)NC(C)C4)cc3)n[nH]2)cc(OC)c1 (centres unmarked) [AZD4547], which IC50 ([1]; read-out: Cell growth inhibition, IC50 (nM) AZD4547 resistant cells, AZD4547 resistant OCUM-2MD3 cells, range in brackets) is on record?
Answer: The IC50 was 159 nM.

Question: What about the IC50 [2] of the same compound?
Answer: Its IC50 is 6.1 nM.

Question: What does the source list for CCN1CCN(c2ccc(Nc3cc(N(C)C(=O)Nc4c(Cl)c(OC)cc(OC)c4Cl)ncn3)cc2)CC1 [BGJ398]?
Answer: IC50 ([1]; Homo sapiens, OCUM-2MD3, read-out: Cell growth inhibition, IC50 (nM) AZD4547 resistant cells): 55.6 nM; IC50 ([2]; Homo sapiens): 7.6 nM

Question: CCOc1cc(C#Cc2nn(C3CN(C(=O)/C=C/CN(C)C)C3)c3ncnc(N)c23)cc(OCC)c1 [Ex. Compound 25, 1-(3-(4-amino-3-((3,5-diethoxyphenyl)ethynyl)-1H-pyrazolo[3,4-d]pyrimidin-1-yl)azetidin-1-yl)-4-(dimethylamino)but-2-en-1-one] was tested. Which GI50 [3] did it give?
Answer: The GI50 was 13 nM.

Question: With C=CC(=O)N1C[C@@H](n2cc(C#Cc3cc(OC)cc(OC)c3)c3c(N)ncnc32)C[C@H]1C(=O)OC [Ex. Compound 66, (2S,4S)-methyl 1-acryloyl-4-(4-amino-5-((3,5-dimethoxyphenyl)ethynyl)-7H-pyrrolo[2,3-d]pyrimidin-7-yl)pyrrolidine-2-carboxylate] as the compound, how does the IC50 [4] read?
Answer: The IC50 was less than 0.3 nM.

Question: What about the GI50 [3] of the same compound?
Answer: Its GI50 is less than 4.6 nM.

Question: For CC(C)c1cc(C#Cc2nn([C@H]3CCN(C(=O)/C=C/CN(C)C)C3)c3ncnc(N)c23)cc(C(C)C)c1 [Ref. Ex. Compound 4, (S)-1-(3-(4-amino-3-((3,5-diisopropylphenyl)ethynyl)-1H-pyrazolo[3,4-d]pyrimidin-1-yl)pyrrolidin-1-yl)-4-(dimethylamino)but-2-en-1-one], which IC50 [4] is on record?
Answer: Its IC50 is greater than 10000 nM.
